{"source": "paper PMC5347165", "about": "“Killing of Staphylococcus aureus and Salmonella enteritidis and neutralization of lipopolysaccharide by 17-residue bovine lactoferricins: improved activity of Trp/Ala-containing molecules” (Scientific Reports, 2017)", "key": {"S. enteritidis CVCC3377 [1]": {"tested_on": "S. enteritidis CVCC3377", "assay_type": "cell-based, Salmonella enteritidis", "settings": "microtiter broth dilution, 10^5 CFU/ml, 16‒18 h at 37 °C; representative of three independent experiments", "description": "(§1) The MIC values of LfcinB17-33 derivatives against bacteria were determined by the microtiter broth dilution method. Briefly, 10 μl of serially diluted aliquots of peptides were added to each well of 96-well microtiter plates, followed by the addition of 90 μl exponential phase bacteria (10^5 CFU/ml) and incubated for 16‒18 h at 37 °C."}, "[2]": {"tested_on": "Bacillus subtilis ATCC6633", "assay_type": "cell-based", "settings": "microtiter broth dilution, 10^5 CFU/ml, 16‒18 h at 37 °C; representative of three independent experiments", "description": "as §1"}, "[3]": {"tested_on": "Enterococcus faecium CMCC1.2136", "assay_type": "cell-based", "settings": "microtiter broth dilution, 10^5 CFU/ml, 16‒18 h at 37 °C; representative of three independent experiments", "description": "as §1"}, "Escherichia coli CVCC195": {"tested_on": "Escherichia coli CVCC195", "assay_type": "cell-based", "settings": "microtiter broth dilution, 10^5 CFU/ml, 16‒18 h at 37 °C; representative of three independent experiments", "description": "as §1"}, "[4]": {"tested_on": "Pseudomonas aeruginosa CICC10419", "assay_type": "cell-based", "settings": "microtiter broth dilution, 10^5 CFU/ml, 16‒18 h at 37 °C; representative of three independent experiments", "description": "as §1"}, "S. choleraesuis CVCC503": {"tested_on": "S. choleraesuis CVCC503", "assay_type": "cell-based", "settings": "microtiter broth dilution, 10^5 CFU/ml, 16‒18 h at 37 °C; representative of three independent experiments", "description": "as §1"}, "S. pullorum CVCC1789": {"tested_on": "S. pullorum CVCC1789", "assay_type": "cell-based", "settings": "microtiter broth dilution, 10^5 CFU/ml, 16‒18 h at 37 °C; representative of three independent experiments", "description": "as §1"}, "S. pullorum CVCC1802": {"tested_on": "S. pullorum CVCC1802", "assay_type": "cell-based", "settings": "microtiter broth dilution, 10^5 CFU/ml, 16‒18 h at 37 °C; representative of three independent experiments", "description": "as §1"}, "[5]": {"tested_on": "Salmonella typhimurium ATCC14028", "assay_type": "cell-based", "settings": "microtiter broth dilution, 10^5 CFU/ml, 16‒18 h at 37 °C; representative of three independent experiments", "description": "as §1"}, "[6]": {"tested_on": "Staphylococcus aureus ATCC43300", "assay_type": "cell-based", "settings": "microtiter broth dilution, 10^5 CFU/ml, 16‒18 h at 37 °C; representative of three independent experiments", "description": "as §1"}, "[7]": {"tested_on": "Streptococcus suis CVCC606", "assay_type": "cell-based", "settings": "microtiter broth dilution, 10^5 CFU/ml, 16‒18 h at 37 °C; representative of three independent experiments", "description": "as §1"}, "P. aeruginosa CICC21630": {"tested_on": "P. aeruginosa CICC21630", "assay_type": "cell-based, Pseudomonas aeruginosa", "settings": "microtiter broth dilution, 10^5 CFU/ml, 16‒18 h at 37 °C; representative of three independent experiments", "description": "as §1"}, "S. aureus ATCC25923": {"tested_on": "S. aureus ATCC25923", "assay_type": "cell-based, Staphylococcus aureus", "settings": "microtiter broth dilution, 10^5 CFU/ml, 16‒18 h at 37 °C; representative of three independent experiments", "description": "as §1"}, "[8]": {"assay": "Calcein leakage from model membranes", "settings": "at 5 min, POPC/POPG (1:3) LUVs, 0.1% Triton X-100 = total", "description": "Large unilamellar vesicles (LUVs) composed of POPC/POPG (1:3) were used as a model anionic membrane. […] were dissolved in chloroform, dried under nitrogen gas and vacuum-dried for 2 h. The lipid film was rehydrated in 20 mM HEPES (150 mM NaCl, 1 mM EDTA, pH 7.4). To make calcein-encapsulated unilamellar liposomes, the lipid film was suspended in 5 mM sodium HEPES (containing 100 mM calcein, pH 7.5). The liposome suspensions were freeze-thawed in liquid nitrogen five times and extruded ten times through two stacked polycarbonate filters (100 nm pore size) in an Avanti Mini-Extruder. Untrapped calcein was removed using a Sephadex G-50 column (Amersham Pharmacia Biotech, Little Chalfont, UK). Peptides were then added to the LUVs. After a 10-min incubation at room temperature, the release of calcein form vesicles was monitored for 10 min on a Tecan Infinite M200 PRO plate reader (TECAN, Austria) with an excitation wavelength of 485 nm and an emission wavelength of 535 nm. The total calcein fluorescence (FT) was determined by the addition of 0.1% Triton X-100. Dye leakage was calculated according to the following equation: leakage rate (%) = ((F − F0)/(FT − F0)), where F0 indicates the fluorescence of each sample at T = 0."}, "S. enteritidis CVCC3377 [9]": {"tested_on": "S. enteritidis CVCC3377", "assay": "Inner membrane permeabilization, PI staining by flow cytometry", "assay_type": "cell-based, Salmonella enteritidis", "settings": "1 × MIC, 37 °C, untreated 0.76%", "description": "The permeabilization of the inner membrane was performed according to a previous report by Li et al. with slight modifications. […] Bacterial cells were then washed twice with PBS, fixed with 50 μg/ml PI and analyzed using a BD FACS Calibur Flow Cytometer (Franklin Lakes, New Jersey, USA). Data were analyzed using CellQuest Pro software (BD, USA)."}, "[10]": {"tested_on": "genomic DNA from E. coli O157", "assay": "Gel retardation (EMSA) of genomic DNA", "assay_type": "binding, Escherichia coli", "settings": "0.7% agarose gel, 10 min 37 °C; ratios tested 0, 0.5, 1, 2.5, 5, 10 (w/w)", "description": "(§2) Genomic DNA was extracted from S. aureus ATCC25923, E. coli O157 and S. enteritidis CVCC3377 using a TIANamp Bacteria DNA Kit (TIANGEN Biotech Co., Ltd., Beijing). The gel retardation experiment was performed by mixing the bacterial DNA with different concentrations of Lfcin4 or Lfcin5 in 20 μl binding buffer (10 mM Tris-HCl, pH 8.0, 5% glycerol, 1 mM dithiothreitol, 1 mM EDTA, 20 mM KCl, and 50 μg/ml bovine serum albumin)[41]. The ratios of peptide to DNA were 0, 0.5, 1, 2.5, 5.0, and 10.0 (w/w). The mixtures were incubated for 10 min at 37 °C and then subjected to electrophoresis on a 0.7% agarose gel."}, "[11]": {"tested_on": "genomic DNA from S. aureus ATCC25923", "assay": "Gel retardation (EMSA) of genomic DNA", "assay_type": "binding, Staphylococcus aureus", "settings": "0.7% agarose gel, 10 min 37 °C; ratios tested 0, 0.5, 1, 2.5, 5, 10 (w/w)", "description": "as §2"}, "LPS from E. coli O111:B4": {"tested_on": "LPS from E. coli O111:B4", "assay": "LPS-induced endotoxemia model, survival", "assay_type": "in vivo, mouse (C57BL/6)", "settings": "followed 7 d, groups of eight mice", "description": "Male C57BL/6 mice (8 weeks old, 22 ± 2 g) were intraperitoneally injected with 30 mg/kg of LPS (0.2 ml) from E. coli O111:B4 cells as previously described. Mice were intraperitoneally injected with Lfcin4 or Lfcin5 (10, 15 or 20 mg/kg of body weight in 0.2 ml) or colistin (15 mg/kg of body weight in 0.2 ml) at 0.5, 8 and 24 h after inoculation with LPS, respectively. Mice injected with LPS or saline only served as positive or mock-treated controls, respectively. Survival was recorded every 12 h and followed for up to 7 d."}}, "note": "Where “and” joins values, the source holds several entries; their conditions need not be identical. Equal values may be shown once.", "data": [{"sequence": "FKAWRWAWRMKKLAAPS [Lfcin4, 17-residue LfcinB17-31 derivative, Trp/Ala-containing]", "values": [{"measurement": "MIC", "setting": "S. enteritidis CVCC3377 [1]", "result": "1.8 μM and 4 μg/ml"}, {"measurement": "MIC", "setting": "[2]", "result": "15 μM and 32 μg/ml"}, {"measurement": "MIC", "setting": "[3]", "result": "7.3 μM and 16 μg/ml"}, {"measurement": "MIC", "setting": "Escherichia coli CVCC195", "result": "30 μM and 64 μg/ml"}, {"measurement": "MIC", "setting": "[4]", "result": ">58 μM and >128 μg/ml"}, {"measurement": "MIC", "setting": "S. choleraesuis CVCC503", "result": "58 μM and 128 μg/ml"}, {"measurement": "MIC", "setting": "S. pullorum CVCC1789", "result": ">58 μM and >128 μg/ml"}, {"measurement": "MIC", "setting": "S. pullorum CVCC1802", "result": ">58 μM and >128 μg/ml"}, {"measurement": "MIC", "setting": "[5]", "result": "58 μM and 128 μg/ml"}, {"measurement": "MIC", "setting": "[6]", "result": "29 μM and 64 μg/ml"}, {"measurement": "MIC", "setting": "[7]", "result": "58 μM and 128 μg/ml"}, {"measurement": "MIC", "setting": "P. aeruginosa CICC21630", "result": ">58 μM and >128 μg/ml"}, {"measurement": "MIC", "setting": "S. aureus ATCC25923", "result": "3.66 μM and 8 μg/ml"}, {"measurement": "dye (calcein) leakage from vesicles", "setting": "[8]; 1× MIC", "result": 45.5, "unit": "%"}, {"measurement": "dye (calcein) leakage from vesicles", "setting": "[8]; 2× MIC", "result": 90.6, "unit": "%"}, {"measurement": "dye (calcein) leakage from vesicles", "setting": "[8]; 4× MIC", "result": 98.4, "unit": "%"}, {"measurement": "PI-positive cells", "setting": "S. enteritidis CVCC3377 [9]; 30 min", "result": 2.94, "unit": "%"}, {"measurement": "PI-positive cells", "setting": "S. enteritidis CVCC3377 [9]; 120 min", "result": 18.90, "unit": "%"}, {"measurement": "peptide:DNA mass ratio at which migration of genomic DNA is impaired", "setting": "[10]", "result": "over 1.0 mass ratio (peptide:DNA)"}, {"measurement": "peptide:DNA mass ratio at which migration of genomic DNA is impaired", "setting": "[11]", "result": "over 1.0 mass ratio (peptide:DNA)"}, {"measurement": "survival rate", "setting": "LPS from E. coli O111:B4; 10 mg/kg i.p. at 0.5, 8 and 24 h after LPS 30 mg/kg i.p.", "result": 75, "unit": "%"}, {"measurement": "survival rate", "setting": "LPS from E. coli O111:B4; 15 mg/kg i.p. at 0.5, 8 and 24 h after LPS 30 mg/kg i.p.", "result": 100, "unit": "%"}, {"measurement": "survival rate", "setting": "LPS from E. coli O111:B4; 20 mg/kg i.p. at 0.5, 8 and 24 h after LPS 30 mg/kg i.p.", "result": 100, "unit": "%"}]}]}
